Reference: patent publication US11286268B1, “EIF4E-inhibiting compounds and methods” (EFFECTOR THERAPEUTICS, INC., priority 2019, dated 2022)
Read-outs that look alike come from different tables or passages of the source.

Target: recombinant eIF4E (Homo sapiens (Human), UniProt P06730)
Test: Fluorescence polarization competition assay for eIF4E binding potency
In short: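 IC50 values reflect 50% displacement of 20 nM EDA-m7GDP-ATTO-550 from 75 nM eIF4E, measured by fluorescence polarization after 30 min at room temperature. Buffer: 20 mM Tris pH 7.5, 100 mM NaCl, 1 mM DTT, 0.02% Tween-20; 1% DMSO.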

[1] = fluorescence polarization competition, 75 nM recombinant eIF4E, 20 nM EDA-m7GDP-ATTO-550, IC50 class, read-out: elF4E FP
[2] = inhibition of eIF4E/EDA-m7GDP-ATTO-550 binding by 50%, Table 4B calculated values, read-out: IC50

Chain of recombinant eIF4E (P06730 whole entry): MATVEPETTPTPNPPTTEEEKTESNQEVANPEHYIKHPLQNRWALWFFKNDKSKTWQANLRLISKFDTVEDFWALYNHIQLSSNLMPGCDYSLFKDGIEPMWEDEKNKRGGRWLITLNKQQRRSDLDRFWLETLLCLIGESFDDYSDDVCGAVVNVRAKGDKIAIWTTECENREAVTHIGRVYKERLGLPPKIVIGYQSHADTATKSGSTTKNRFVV

IC50 [1] | IC50 [2] | SMILES
< 50 nM | 4.19 nM | Cc1cc(-c2cc(Cl)ccc2OCCn2c(C)nc3c(C)nc(N4CCC(O)C4)c(C#N)c3c2=O)c2scc(C(=O)O)c2n1 (stereo not shown) [compound 1149]
< 50 nM | 4.6 nM | Cc1cc(-c2cc(Cl)ccc2OCCn2c(C)nc3cc(S(C)(=O)=O)c(N4CCN(C)CC4)c(C#N)c3c2=O)c2sc(C)c(C(=O)O)c2n1 [compound 1150]
< 50 nM | 19 nM | Cc1nc2cc(C(F)(F)F)c(N3CCN(C)CC3)c(C#N)c2c(=O)n1CCOc1ccc(Cl)cc1-c1ccnc2c(C(=O)NS(C)(=O)=O)csc12 [compound 1151]
< 50 nM | 3.8 nM | CO[C@H]1C[C@@H](c2ncc3nc(C)n(CCOc4ccc(Cl)cc4-c4cc(C)nc5c(C(=O)O)csc45)c(=O)c3c2C#N)C1 [compound 1152]
< 50 nM | 38 nM | Cc1nc2cc(C(F)(F)F)c(OCC(F)(F)F)c(C#N)c2c(=O)n1CCOc1ccc(Cl)cc1-c1ccnc2c(C(=O)O)csc12 [compound 1153]
< 50 nM | 14 nM | Cc1nc2cc(C(F)(F)F)c(N3CCN(C)CC3)c(C#N)c2c(=O)n1CC#Cc1ccc(Cl)cc1-c1cccc(C(=O)O)c1 [compound 1154]
< 50 nM | 18.1 nM | Cc1nc2cc(C(F)(F)F)c(N3CCN(C)CC3)nc2c(=O)n1CCOc1ccc(Cl)cc1-c1ccnc2c(C(=O)NS(C)(=O)=O)csc12 [compound 1155]
< 50 nM | 35.1 nM | Cc1nc2cc(C(F)(F)F)c(N3CCN(CCC(F)(F)F)CC3)c(C#N)c2c(=O)n1CCCc1ccc(Cl)cc1-c1ccnc2c(C(=O)O)csc12 [compound 1156]
< 50 nM | 22 nM | Cc1nc2cnc(N(C)C3CCN(CC(F)(F)F)CC3)c(C#N)c2c(=O)n1CCOc1ccc(Cl)cc1-c1ccnc2c(C(=O)NS(C)(=O)=O)csc12 [compound 1157]
< 50 nM | 15.8 nM | Cc1nc2cc(C(F)(F)F)c(N3CC4(C3)CN(C3CC3)C4)c(C#N)c2c(=O)n1CCCc1ccc(Cl)cc1-c1ccnc2c(C(=O)O)csc12 [compound 1158]
< 50 nM | 17.2 nM | Cc1nc2cnc(N3CCN(CCC(F)(F)F)CC3)c(C#N)c2c(=O)n1CC#Cc1ccc(Cl)cc1-c1ccnc2c(C(=O)O)csc12 [compound 1160]
< 50 nM | 19.5 nM | Cc1nc2cnc(N3CCN(CCOC(F)(F)F)CC3)c(C#N)c2c(=O)n1CC#Cc1ccc(Cl)cc1-c1ccnc2c(C(=O)O)csc12 [compound 1161]
< 50 nM | 21.6 nM | Cc1nc2cnc(N3CCN(C4CC4)CC3)c(C#N)c2c(=O)n1CC#Cc1ccc(Cl)cc1-c1ccnc2c(C(=O)O)csc12 [compound 1162]
< 50 nM | 24.8 nM | Cc1nc2cnc(N3CCN(C4CC(F)(F)C4)CC3)c(C#N)c2c(=O)n1CC#Cc1ccc(Cl)cc1-c1ccnc2c(C(=O)O)csc12 [compound 1163]
< 50 nM | 26.7 nM | Cc1nc2cnc(N3CCN(CC(C)(F)CF)CC3)c(C#N)c2c(=O)n1CCOc1ccc(Cl)cc1-c1ccnc2c(C(=O)O)csc12 (stereo not shown) [compound 1164]
< 50 nM | 22.3 nM | Cc1nc2cnc(N(C)C3CCN(C4CC(F)(F)C4)CC3)c(C#N)c2c(=O)n1CC#Cc1ccc(Cl)cc1-c1ccnc2c(C(=O)O)csc12 [compound 1165]
< 50 nM | 28.6 nM | Cc1nc2cnc(N(C)C3CCN(C4CCC4(F)F)CC3)c(C#N)c2c(=O)n1CC#Cc1ccc(Cl)cc1-c1ccnc2c(C(=O)O)csc12 (stereo not shown) [compound 1166]
< 50 nM | 17.3 nM | Cc1nc2cnc(N3CCN(CC4(F)CC4)CC3)c(C#N)c2c(=O)n1CC#Cc1ccc(Cl)cc1-c1ccnc2c(C(=O)O)csc12 [compound 1167]
< 50 nM | 13 nM | CCC(F)(F)CN1CCC(N(C)c2ncc3nc(C)n(COCc4ccc(Cl)cc4-c4ccnc5c(C(=O)O)csc45)c(=O)c3c2C#N)CC1 [compound 1168]
< 50 nM | 15.3 nM | Cc1nc2cnc(N(C)C3CCN(CC4(F)CC4)CC3)c(C#N)c2c(=O)n1CC#Cc1ccc(Cl)cc1-c1ccnc2c(C(=O)O)csc12 [compound 1169]
